Data from publication PMC12016938, “A small molecule PKCε inhibitor reduces hyperalgesia induced by paclitaxel or opioid withdrawal” (JCI Insight, 2025).
Where “and” joins values, the source holds several entries; their conditions need not be identical. Equal values may be shown once. Where a name gives a salt, the structure may show the parent alone.

Tested on: self-administration (addictive potential)
Test: I.v. self-administration of CP612, between-session progressive ratio and demand curve
Protocol: We tested the addictive potential of CP612 by examining the extent to which rats are willing to work to obtain CP612. Rats were initially trained to self-administer either saline, morphine (500 μg/kg/i.v. infusion), or 1 of 3 different doses of CP612 (75, 150, or 300 μg/kg/i.v. infusion) for 4 days at fixed ratio 1 (FR1, where 1 nose poke delivers 1 infusion).
During the second phase, the ratio to obtain an infusion increased geometrically every other day (FR1, FR3, FR6, FR12, FR24, FR48, and FR96).
Data (number of self-infusions) were also fitted in an economic-demand curve, which provides an estimate of the motivation to obtain drugs and their addictive potential ([20]). We measured elasticity (α), which is the relative change in consumption as a function of price (i.e., ratio of nose pokes required to obtain an infusion). Behavior is considered “inelastic” when consumption is insensitive to price and “elastic” when consumption is sensitive to price. We also measured Pmax, which is the price at which intake switches from inelastic to elastic. […] (Figure 8B).
Rats not immediately anesthetized were eliminated from the study.
Following this initial acquisition phase at FR1, the ratio to obtain the drug was increased geometrically every other day: FR3 (3 nose pokes are required to obtain 1 infusion of morphine), FR6, FR12, FR24, FR48, and FR96. This allows for analysis of drug consumption as a function of “price” using demand curves for behavioral economics, which can estimate the motivation to obtain drugs and their “addictive potential” ([20]). For this, data from each rat were fitted to the equation log Q = log Q0 + k (e ^–α(Q0 ^C) – 1), where Q represents consumption (number of self-infusions), and Q0 represents the level of consumption at the lowest price. C represents price for the drug (i.e., the ratio), and k is set to a constant accounting for the estimated range of consumption in logarithmic units (k = 4 in these studies). The symbol α is the relative change in consumption across changes in price (ratio). Behavior is considered “inelastic” when consumption is insensitive to price (i.e., the curve is flat, and consumption is maintained despite increases in price), and it switches to “elastic” when consumption is sensitive to price (i.e., when the curve is steep and consumption declines with increases in price). […] We also compared groups for their average intake in the consumption-price curves by measuring α (elasticity) and Pmax.

[1] = individual rat values, drug self-administered

For `CN1CC[C@]23c4c5ccc(O)c4O[C@H]2[C@@H](O)C=C[C@H]3[C@H]1C5` [Morphine, Morphine sulfate, reference compound], the “Responding in the active hole when the ratio to obtain an infusion increased” value (FR1 to FR96, CP612 75, 150, 300 or morphine 500 μg/kg/i.v. infusion) was “increased responding”, the “Number of self-infusions when the ratio to obtain an infusion increased” value (FR1 to FR96, compared with saline) was “did not significantly decrease” and the “D1 AH (FR1)” value [1] was 7 and 9 and 15. For the same molecule, the “D1 AH (FR3)” value [1] was 23 and 18 and 20, the “D1 AH (FR6)” value [1] was 51 and 24 and 47 and the “D1 AH (FR12)” value [1] was 97 and 70 and 72. The “D1 AH (FR24)” value [1] was 143 and 139 and 168, the “D1 AH (FR48)” value [1] was 113 and 164 and 127 and the “D1 AH (FR96)” value [1] was 127 and 137 and 133. For the same molecule, the “D1 IH (FR1)” value [1] was 1 and 12 and 2, the “D1 IH (FR3)” value [1] was 9 and 12 and 5 and the “D1 IH (FR6)” value [1] was 0 and 9 and 7. The “D1 IH (FR12)” value [1] was 2 and 15 and 20, the “D1 IH (FR24)” value [1] was 7 and 9 and 20 and the “D1 IH (FR48)” value [1] was 13 and 28. The “D1 IH (FR96)” value [1] was 7 and 33, the “D1 Inf (FR1)” value [1] was 6 and 7 and 10 and the “D1 Inf (FR3)” value [1] was 7 and 5 and 6. The “D1 Inf (FR6)” value [1] was 8 and 4 and 7, the “D1 Inf (FR12)” value [1] was 8 and 5 and 6 and the “D1 Inf (FR24)” value [1] was 5 and 6. The “D1 Inf (FR48)” value [1] was 2 and 3, the “D1 Inf (FR96)” value [1] was 1 and the “D1 Latency (FR1)” value [1] was 1.5 and 1.4 and 2.3. For the same molecule, the “D1 Latency (FR3)” value [1] was 0.38 and 0.7 and 0.267, the “D1 Latency (FR6)” value [1] was 0.2 and 0.317 and 0.6 and the “D1 Latency (FR12)” value [1] was 1.6 and 0.6 and 1.7. The “D1 Latency (FR24)” value [1] was 1.3 and 0.5 and 0.26, the “D1 Latency (FR48)” value [1] was 0.367 and 0.26 and 1.1 and the “D1 Latency (FR96)” value [1] was 1.0 and 1.1 and 0.7. For the same molecule, the “D2 AH (FR1)” value [1] was 5 and 7 and 12, the “D2 AH (FR3)” value [1] was 25 and 23 and 26 and the “D2 AH (FR6)” value [1] was 59 and 60 and 46. For the same molecule, the “D2 AH (FR12)” value [1] was 118 and 94 and 104, the “D2 AH (FR24)” value [1] was 143 and 151 and 176 and the “D2 AH (FR48)” value [1] was 163 and 134 and 158. The “D2 AH (FR96)” value [1] was 106 and 145 and 179, the “D2 IH (FR1)” value [1] was 8 and 6 and 2 and the “D2 IH (FR3)” value [1] was 1 and 11 and 13. For the same molecule, the “D2 IH (FR6)” value [1] was 9 and 8, the “D2 IH (FR12)” value [1] was 8 and 7 and the “D2 IH (FR24)” value [1] was 11 and 7 and 20. For the same molecule, the “D2 IH (FR48)” value [1] was 19 and 11, the “D2 IH (FR96)” value [1] was 6 and 16 and the “D2 Inf (FR1)” value [1] was 5 and 6 and 9. The “D2 Inf (FR3)” value [1] was 8 and 6, the “D2 Inf (FR6)” value [1] was 8 and 9 and 7 and the “D2 Inf (FR12)” value [1] was 9 and 6 and 7. For the same molecule, the “D2 Inf (FR24)” value [1] was 5 and 6 and 7, the “D2 Inf (FR48)” value [1] was 3 and 2 and the “D2 Inf (FR96)” value [1] was 1. For the same molecule, the “D2 Latency (FR1)” value [1] was 0.458 and 1.3 and 0.3, the “D2 Latency (FR3)” value [1] was 0.25 and 0.473 and 0.4 and the “D2 Latency (FR6)” value [1] was 3.2 and 1.4 and 0.647. The “D2 Latency (FR12)” value [1] was 0.127 and 0.277 and 0.753, the “D2 Latency (FR24)” value [1] was 3.0 and 1.6 and the “D2 Latency (FR48)” value [1] was 0.218 and 0.3 and 0.9. The “D2 Latency (FR96)” value [1] was 0.5 and 0.28 and 1.1, the “D3 AH (FR1)” value [1] was 8 and 11 and 13 and the “D3 IH (FR1)” value [1] was 3 and 5 and 0. For the same molecule, the “D3 Inf (FR1)” value [1] was 6 and 7 and 9, the “D3 Latency (FR1)” value [1] was 0.6 and 2.1 and 0.053 and the “D4 AH (FR1)” value [1] was 10 and 12 and 11. For the same molecule, the “D4 IH (FR1)” value [1] was 0 and 4 and 2, the “D4 Inf (FR1)” value [1] was 7 and 9 and the “D4 Latency (FR1)” value [1] was 0.13 and 0.6 and 0.632. For the same molecule, the “last AH (FR1)” value [1] was 7 and 8 and 14, the “last IH (FR1)” value [1] was 3 and 2 and 4 and the “last Inf (FR1)” value [1] was 6. For the same molecule, the “last Latency (FR1)” value [1] was 0.34 and 0.452 and 0.9, the “last-1 AH (FR1)” value [1] was 10 and 12 and 11 and the “last-1 IH (FR1)” value [1] was 0 and 4 and 2. The “last-1 Inf (FR1)” value [1] was 7 and 9, the “last-1 Latency (FR1)” value [1] was 0.13 and 0.6 and 0.632 and the “last-2 AH (FR1)” value [1] was 8 and 11 and 13. The “last-2 IH (FR1)” value [1] was 3 and 5 and 0, the “last-2 Inf (FR1)” value [1] was 6 and 7 and 9 and the “last-2 Latency (FR1)” value [1] was 0.6 and 2.1 and 0.053. The “last-3 AH (FR1)” value [1] was 5 and 7 and 12, the “last-3 IH (FR1)” value [1] was 8 and 6 and 2 and the “last-3 Inf (FR1)” value [1] was 5 and 6 and 9. The “last-3 Latency (FR1)” value [1] was 0.458 and 1.3 and 0.3, the “Pmax (price at which intake switches from inelastic to elastic)” value (morphine 500 μg/kg/i.v. infusion) was 50.1 and the “AVG AH (FR3)” value (morphine, individual rats) was 43.5 and 29.0 and 31.0 and 18.0 and 18.5 and 24.0. The “AVG AH (FR6)” value (morphine, individual rats) was 43.5 and 53.5 and 45.5 and 38.5 and 31.0 and 21.0, the “AVG AH (FR12)” value (morphine, individual rats) was 62.0 and 88.0 and 64.5 and 104.0 and 39.0 and 41.5 and the “AVG AH (FR24)” value (morphine, individual rats) was 164.5 and 149.5 and 79.5 and 187.0 and 122.5 and 61.0. For the same molecule, the “AVG AH (FR48)” value (morphine, individual rats) was 232.5 and 252.5 and 73.5 and 255.0 and 135.0 and 63.0, the “AVG AH (FR96)” value (morphine, individual rats) was 203.5 and 351.0 and 57.0 and 198.0 and 210.5 and 36.0 and the “AVG IH (FR1_D1 to D4)” value (morphine, individual rats) was 10.3 and 8.8 and 13.3 and 5.3 and 14.8 and 7.0. The “AVG IH (FR1_Last 2 FR1 days)” value (morphine, individual rats) was 3.5 and 3.0 and 5.5 and 5.0 and 6.5 and 9.0, the “AVG IH (FR1_Last 4 FR1 days)” value (morphine, individual rats) was 10.8 and 3.5 and 9.5 and 4.8 and 11.0 and 7.5 and the “AVG IH (FR3)” value (morphine, individual rats) was 10.0 and 7.5 and 8.5 and 8.0 and 15.0 and 9.0. The “AVG IH (FR6)” value (morphine, individual rats) was 6.5 and 7.0 and 9.0 and 7.5 and 13.5 and 11.0, the “AVG IH (FR12)” value (morphine, individual rats) was 11.0 and 9.5 and 19.0 and 5.0 and 6.0 and 4.0 and the “AVG IH (FR24)” value (morphine, individual rats) was 11.0 and 10.0 and 15.0 and 7.5 and 8.5. For the same molecule, the “AVG IH (FR48)” value (morphine, individual rats) was 8.5 and 13.5 and 12.0 and 18.0 and 9.5 and 13.0, the “AVG IH (FR96)” value (morphine, individual rats) was 8.5 and 18.5 and 13.5 and 14.5 and 26.0 and the “AVG Inf (FR1_D1 to D4)” value (morphine, individual rats) was 10.8 and 9.3 and 8.0 and 12.0 and 9.5 and 10.0. For the same molecule, the “AVG Inf (FR1_Last 2 FR1 days)” value (morphine, individual rats) was 14.0 and 10.0 and 11.0 and 9.0 and 7.5, the “AVG Inf (FR1_Last 4 FR1 days)” value (morphine, individual rats) was 12.0 and 10.0 and 9.0 and 13.3 and 9.5 and 9.3 and the “AVG Inf (FR3)” value (morphine, individual rats) was 10.5 and 8.5 and 9.5 and 5.0 and 4.5. The “AVG Inf (FR6)” value (morphine, individual rats) was 7.0 and 7.5 and 6.0 and 4.0 and 3.0, the “AVG Inf (FR12)” value (morphine, individual rats) was 5.0 and 6.0 and 4.5 and 8.0 and 3.0 and the “AVG Inf (FR24)” value (morphine, individual rats) was 6.0 and 5.5 and 3.0 and 7.5 and 4.0 and 2.0. For the same molecule, the “AVG Inf (FR48)” value (morphine, individual rats) was 4.5 and 5.0 and 1.0 and 2.0, the “AVG Inf (FR96)” value (morphine, individual rats) was 1.5 and 3.0 and 0.0 and the “AVG Latency (FR1_D1 to D4)” value (morphine, individual rats) was 2.4 and 4.0 and 9.8 and 1.3 and 2.0 and 1.1. The “AVG Latency (FR1_Last 2 FR1 days)” value (morphine, individual rats) was 0.271 and 0.4 and 3.0 and 0.18 and 0.74 and 1.1 and the “AVG Latency (FR1_Last 4 FR1 days)” value (morphine, individual rats) was 0.3 and 0.277 and 3.8 and 0.6 and 1.1.
